Results published in PMC6430112 (Xenobiotica; the fate of foreign compounds in biological …, 2018).
Several values for one entry are separate records, joined by “and”; a condition that tells them apart may be missing. Identical values can stand only once.

Legend:
CYP2C9 = CYP2C9 (Homo sapiens, UniProt P11712); assay: Oxidation by purified CYP2C9 in reconstituted monooxygenase system, LC-MS/MS; format: in vitro ADME; conditions: substrate flavanone
CYP2A13 = biological target: T1, CYP2A13 (Homo sapiens, UniProt Q16696); assay: Oxidation by purified CYP2A13 in reconstituted monooxygenase system, LC-MS/MS; format: in vitro ADME; conditions: substrate flavanone
T1 sequence (Q16696 1-494): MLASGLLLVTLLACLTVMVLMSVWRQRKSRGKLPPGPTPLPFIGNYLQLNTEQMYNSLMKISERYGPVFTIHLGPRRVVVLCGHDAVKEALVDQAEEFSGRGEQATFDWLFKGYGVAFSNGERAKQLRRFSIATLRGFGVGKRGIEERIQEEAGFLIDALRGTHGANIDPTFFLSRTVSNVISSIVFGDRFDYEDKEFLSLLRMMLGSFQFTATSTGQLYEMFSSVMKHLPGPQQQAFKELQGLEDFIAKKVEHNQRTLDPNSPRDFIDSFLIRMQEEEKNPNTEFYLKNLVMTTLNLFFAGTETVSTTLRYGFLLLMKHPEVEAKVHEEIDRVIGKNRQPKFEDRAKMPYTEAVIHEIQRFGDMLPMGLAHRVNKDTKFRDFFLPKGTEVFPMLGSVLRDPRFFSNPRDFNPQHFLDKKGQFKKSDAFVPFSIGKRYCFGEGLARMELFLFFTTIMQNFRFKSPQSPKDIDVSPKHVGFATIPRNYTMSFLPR

CYP1B1 = biological target: T2, CYP1B1 (Homo sapiens, UniProt Q16678); assay: Oxidation by purified CYP1B1 in reconstituted monooxygenase system, LC-MS/MS; format: in vitro ADME; conditions: substrate flavanone
T2 sequence (Q16678 1-543): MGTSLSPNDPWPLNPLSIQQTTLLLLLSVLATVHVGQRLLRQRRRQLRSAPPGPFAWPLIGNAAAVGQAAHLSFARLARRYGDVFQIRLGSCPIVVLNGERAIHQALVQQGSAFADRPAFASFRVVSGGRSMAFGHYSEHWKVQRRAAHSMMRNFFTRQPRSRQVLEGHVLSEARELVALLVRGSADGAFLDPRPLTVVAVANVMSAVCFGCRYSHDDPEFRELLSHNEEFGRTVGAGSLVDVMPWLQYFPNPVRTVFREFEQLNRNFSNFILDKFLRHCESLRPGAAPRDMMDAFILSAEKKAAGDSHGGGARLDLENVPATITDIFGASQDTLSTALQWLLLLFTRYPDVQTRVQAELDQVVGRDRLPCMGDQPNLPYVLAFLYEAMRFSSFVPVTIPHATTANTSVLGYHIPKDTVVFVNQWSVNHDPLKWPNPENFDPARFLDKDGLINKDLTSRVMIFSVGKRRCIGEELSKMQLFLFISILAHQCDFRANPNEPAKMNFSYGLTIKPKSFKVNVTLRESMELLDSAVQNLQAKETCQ

rat liver microsomes = conditions: ref Kagawa et al. (2004); cited from earlier work
CYP3A4 = CYP3A4 (Homo sapiens, UniProt P08684); assay: Oxidation by purified CYP3A4 in reconstituted monooxygenase system, LC-MS/MS; format: in vitro ADME; conditions: substrate flavanone
CYP1A2 = biological target: T3, CYP1A2 (Homo sapiens, UniProt P05177); assay: Oxidation by purified CYP1A2 in reconstituted monooxygenase system, LC-MS/MS; format: in vitro ADME; conditions: substrate flavanone
T3 sequence (P05177 1-516): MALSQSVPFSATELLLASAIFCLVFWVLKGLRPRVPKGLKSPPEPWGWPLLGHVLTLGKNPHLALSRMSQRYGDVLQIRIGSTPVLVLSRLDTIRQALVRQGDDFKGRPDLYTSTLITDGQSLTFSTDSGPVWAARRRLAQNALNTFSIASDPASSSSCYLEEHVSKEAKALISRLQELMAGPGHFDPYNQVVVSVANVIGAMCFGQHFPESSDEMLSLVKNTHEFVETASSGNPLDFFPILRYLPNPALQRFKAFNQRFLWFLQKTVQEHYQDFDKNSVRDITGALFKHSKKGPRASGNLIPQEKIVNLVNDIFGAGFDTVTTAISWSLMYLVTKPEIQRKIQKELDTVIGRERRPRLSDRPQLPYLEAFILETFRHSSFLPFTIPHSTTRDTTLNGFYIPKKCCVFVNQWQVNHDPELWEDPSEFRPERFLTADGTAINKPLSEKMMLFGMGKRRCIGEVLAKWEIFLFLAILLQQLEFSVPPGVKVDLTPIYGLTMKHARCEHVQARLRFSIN

wild-type CYP2A6 = conditions: substrate flavanone, ref Uno et al. (2013; 2015); cited from earlier work
CYP2A6 = biological target: T4, CYP2A6 (Homo sapiens, UniProt P11509); assay: Oxidation by purified CYP2A6 in reconstituted monooxygenase system, LC-MS/MS; format: in vitro ADME; conditions: substrate flavanone
T4 sequence (P11509 1-494): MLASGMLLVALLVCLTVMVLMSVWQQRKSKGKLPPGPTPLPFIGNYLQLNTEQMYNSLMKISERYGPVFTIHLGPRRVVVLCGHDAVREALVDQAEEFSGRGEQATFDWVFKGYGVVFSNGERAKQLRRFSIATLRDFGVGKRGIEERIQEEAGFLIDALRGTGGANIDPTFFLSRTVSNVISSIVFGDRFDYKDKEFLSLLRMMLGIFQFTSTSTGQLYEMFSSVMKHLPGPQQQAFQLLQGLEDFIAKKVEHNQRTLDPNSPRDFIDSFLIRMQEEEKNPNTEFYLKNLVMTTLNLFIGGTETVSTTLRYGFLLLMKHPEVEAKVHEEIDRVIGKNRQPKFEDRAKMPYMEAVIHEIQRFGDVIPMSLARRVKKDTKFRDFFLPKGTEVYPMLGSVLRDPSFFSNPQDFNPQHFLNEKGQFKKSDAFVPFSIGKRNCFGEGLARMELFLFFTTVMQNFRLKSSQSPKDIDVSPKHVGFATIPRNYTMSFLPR

CYP1A1 = biological target: T5, CYP1A1 (Homo sapiens, UniProt P04798); assay: Oxidation by purified CYP1A1 in reconstituted monooxygenase system, LC-MS/MS; format: in vitro ADME; conditions: substrate flavanone
T5 sequence (P04798 1-512): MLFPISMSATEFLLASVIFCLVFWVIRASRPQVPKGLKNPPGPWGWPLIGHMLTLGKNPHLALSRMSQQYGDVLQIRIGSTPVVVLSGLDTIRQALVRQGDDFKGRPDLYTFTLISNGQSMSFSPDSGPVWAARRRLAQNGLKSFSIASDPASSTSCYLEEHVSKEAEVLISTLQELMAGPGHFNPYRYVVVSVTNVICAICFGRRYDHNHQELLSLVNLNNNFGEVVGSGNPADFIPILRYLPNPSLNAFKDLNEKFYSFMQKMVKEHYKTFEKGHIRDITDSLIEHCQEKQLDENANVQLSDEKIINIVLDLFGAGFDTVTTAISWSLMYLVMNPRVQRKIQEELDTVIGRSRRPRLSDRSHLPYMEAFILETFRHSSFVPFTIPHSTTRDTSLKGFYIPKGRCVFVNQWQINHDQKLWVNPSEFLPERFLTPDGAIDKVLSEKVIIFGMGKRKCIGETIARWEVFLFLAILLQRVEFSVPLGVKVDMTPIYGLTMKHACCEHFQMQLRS

Chain of CYP2C9 (P11712 whole entry): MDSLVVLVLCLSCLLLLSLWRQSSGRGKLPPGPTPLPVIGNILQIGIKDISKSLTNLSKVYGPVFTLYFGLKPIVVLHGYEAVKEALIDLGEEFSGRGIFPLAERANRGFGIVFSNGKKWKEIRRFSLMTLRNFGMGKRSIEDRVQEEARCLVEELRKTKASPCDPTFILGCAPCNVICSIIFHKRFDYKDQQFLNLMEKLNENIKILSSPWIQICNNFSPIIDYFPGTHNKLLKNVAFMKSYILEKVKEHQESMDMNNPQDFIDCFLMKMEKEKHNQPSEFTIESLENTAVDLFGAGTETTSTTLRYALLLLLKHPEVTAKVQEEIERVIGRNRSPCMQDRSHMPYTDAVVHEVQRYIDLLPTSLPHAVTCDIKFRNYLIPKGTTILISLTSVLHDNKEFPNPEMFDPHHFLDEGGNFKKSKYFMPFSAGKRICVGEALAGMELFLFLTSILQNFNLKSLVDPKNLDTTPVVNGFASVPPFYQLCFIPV
Chain of CYP3A4 (P08684 whole entry): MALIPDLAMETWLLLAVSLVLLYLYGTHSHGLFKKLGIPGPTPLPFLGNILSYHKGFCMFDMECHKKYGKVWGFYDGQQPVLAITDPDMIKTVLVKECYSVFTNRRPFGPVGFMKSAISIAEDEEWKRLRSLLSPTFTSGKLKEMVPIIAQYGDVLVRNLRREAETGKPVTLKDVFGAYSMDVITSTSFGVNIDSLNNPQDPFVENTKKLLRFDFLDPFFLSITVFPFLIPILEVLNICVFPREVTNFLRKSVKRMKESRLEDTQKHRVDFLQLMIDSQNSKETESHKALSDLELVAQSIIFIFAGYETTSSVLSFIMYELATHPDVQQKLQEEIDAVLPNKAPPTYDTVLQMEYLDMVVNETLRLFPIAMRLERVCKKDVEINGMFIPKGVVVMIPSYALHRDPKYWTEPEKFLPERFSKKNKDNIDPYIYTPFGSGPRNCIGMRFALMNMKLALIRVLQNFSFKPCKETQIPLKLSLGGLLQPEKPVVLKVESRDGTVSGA

SMILES: O=C1CC(c2ccccc2)Oc2ccccc21 (stereo not drawn) [flavanone]
- Formation of flavone and hydroxylated products: 2´-OHFva (CYP2C9): 0.012 ± 0.001 nmol/min/nmol P450
- Formation of flavone and hydroxylated products: 3´-OHFva (CYP2C9): 0.003± 0.001 nmol/min/nmol P450
- Formation of flavone and hydroxylated products: 4’´-OHFva (CYP2C9): 0.040± 0.001 nmol/min/nmol P450
- Formation of flavone and hydroxylated products: 6OHF (CYP2C9): <0.001 nmol/min/nmol P450
- Formation of flavone and hydroxylated products: 6OHFva (CYP2C9): 0.091± 0.001 nmol/min/nmol P450
- Formation of flavone and hydroxylated products: 7OHF (CYP2C9): <0.001 nmol/min/nmol P450
- Formation of flavone and hydroxylated products: 7OHFva (CYP2C9): <0.001 nmol/min/nmol P450
- Formation of flavone and hydroxylated products: Flavone (CYP2C9): 0.009 ± 0.002 nmol/min/nmol P450
- Formation of flavone and hydroxylated products: 2´-OHFva (CYP2A13): 0.027 ± 0.002 nmol/min/nmol P450
- Formation of flavone and hydroxylated products: 3´-OHFva (CYP2A13): 0.011 ± 0.004 nmol/min/nmol P450
- Formation of flavone and hydroxylated products: 4’´-OHFva (CYP2A13): 0.013 ± 0.001 nmol/min/nmol P450
- Formation of flavone and hydroxylated products: 6OHF (CYP2A13): 0.004 ± 0.001 nmol/min/nmol P450
- Formation of flavone and hydroxylated products: 6OHFva (CYP2A13): 0.17 ± 0.01 nmol/min/nmol P450
- Formation of flavone and hydroxylated products: 7OHF (CYP2A13): <0.001 nmol/min/nmol P450
- Formation of flavone and hydroxylated products: 7OHFva (CYP2A13): 0.005 ± 0.001 nmol/min/nmol P450
- Formation of flavone and hydroxylated products: Flavone (CYP2A13): 0.29 ± 0.02 nmol/min/nmol P450
- Turnover rate of flavone formation (CYP2A13): 0.29 min⁻¹
- Formation of flavone and hydroxylated products: 2´-OHFva (CYP1B1): 0.046 ± 0.009 nmol/min/nmol P450
- Formation of flavone and hydroxylated products: 3´-OHFva (CYP1B1): 0.013 ± 0.002 nmol/min/nmol P450
- Formation of flavone and hydroxylated products: 4’´-OHFva (CYP1B1): 0.19 ± 0.04 nmol/min/nmol P450
- Formation of flavone and hydroxylated products: 6OHF (CYP1B1): 0.002 ± 0.001 nmol/min/nmol P450
- Formation of flavone and hydroxylated products: 6OHFva (CYP1B1): 0.33 ± 0.05 nmol/min/nmol P450
- Formation of flavone and hydroxylated products: 7OHF (CYP1B1): <0.001 nmol/min/nmol P450
- Formation of flavone and hydroxylated products: 7OHFva (CYP1B1): 0.003 ± 0.001 nmol/min/nmol P450
- Formation of flavone and hydroxylated products: Flavone (CYP1B1): 0.046 ± 0.002 nmol/min/nmol P450
- Kinetic deuterium isotope effect for conversion of flavanone to flavone (rat liver microsomes): 1.5
- Formation of flavone and hydroxylated products: 2´-OHFva (CYP3A4): <0.001 nmol/min/nmol P450
- Formation of flavone and hydroxylated products: 3´-OHFva (CYP3A4): <0.001 nmol/min/nmol P450
- Formation of flavone and hydroxylated products: 4’´-OHFva (CYP3A4): <0.001 nmol/min/nmol P450
- Formation of flavone and hydroxylated products: 6OHF (CYP3A4): <0.001 nmol/min/nmol P450
- Formation of flavone and hydroxylated products: 6OHFva (CYP3A4): <0.001 nmol/min/nmol P450
- Formation of flavone and hydroxylated products: 7OHF (CYP3A4): <0.001 nmol/min/nmol P450
- Formation of flavone and hydroxylated products: 7OHFva (CYP3A4): <0.001 nmol/min/nmol P450
- Formation of flavone and hydroxylated products: Flavone (CYP3A4): 0.057 ± 0.011 nmol/min/nmol P450
- Formation of flavone and hydroxylated products: 2´-OHFva (CYP1A2): 0.074 ± 0.012 nmol/min/nmol P450
- Formation of flavone and hydroxylated products: 3´-OHFva (CYP1A2): 0.117 ± 0.023 nmol/min/nmol P450
- Formation of flavone and hydroxylated products: 4’´-OHFva (CYP1A2): 0.33 ± 0.05 nmol/min/nmol P450
- Formation of flavone and hydroxylated products: 6OHF (CYP1A2): <0.001 nmol/min/nmol P450
- Formation of flavone and hydroxylated products: 6OHFva (CYP1A2): 0.19 ± 0.02 nmol/min/nmol P450
- Formation of flavone and hydroxylated products: 7OHF (CYP1A2): 0.002 ± 0.002 nmol/min/nmol P450
- Formation of flavone and hydroxylated products: 7OHFva (CYP1A2): 0.009 ± 0.001 nmol/min/nmol P450
- Formation of flavone and hydroxylated products: Flavone (CYP1A2): 0.008 ± 0.001 nmol/min/nmol P450
- Turnover number of formation of 2´-hydroxyflavanone (wild-type CYP2A6): 0.32 min⁻¹
- Formation of flavone and hydroxylated products: 2´-OHFva (CYP2A6; CYP2A6): 4.76 ± 0.32 nmol/min/nmol P450
- Formation of flavone and hydroxylated products: 3´-OHFva (CYP2A6; CYP2A6): 0.031 ± 0.003 nmol/min/nmol P450
- Formation of flavone and hydroxylated products: 4’´-OHFva (CYP2A6; CYP2A6): 0.20 ± 0.01 nmol/min/nmol P450
- Formation of flavone and hydroxylated products: 6OHF (CYP2A6; CYP2A6): 0.003 ± 0.001 nmol/min/nmol P450
- Formation of flavone and hydroxylated products: 6OHFva (CYP2A6; CYP2A6): 1.29 ± 0.08 nmol/min/nmol P450
- Formation of flavone and hydroxylated products: 7OHF (CYP2A6; CYP2A6): <0.001 nmol/min/nmol P450
- Formation of flavone and hydroxylated products: 7OHFva (CYP2A6; CYP2A6): <0.001 nmol/min/nmol P450
- Formation of flavone and hydroxylated products: Flavone (CYP2A6; CYP2A6): 0.72 ± 0.06 nmol/min/nmol P450
- Turnover number of 2´OHFva formation (CYP2A6; CYP2A6): 4.8 nmol/min/nmol CYP2A6
- Turnover number of 6OHFva formation (CYP2A6; CYP2A6): 1.3 nmol/min/nmol CYP2A6
- Turnover number of flavone formation (CYP2A6; CYP2A6): 0.72 nmol/min/nmol CYP2A6
- Turnover rate of 2´-hydroxyflavanone formation (CYP2A6; CYP2A6): 4.8 min⁻¹ and 4.76 min⁻¹
- Turnover rate of 6-hydroxyflavanone formation (CYP2A6; CYP2A6): 1.3 min⁻¹ and 1.29 min⁻¹
- Turnover rate of flavone formation (CYP2A6; CYP2A6): 0.72 min⁻¹
- Flavone formation turnover rate by CYP2A6 relative to CYP2A13 (CYP2A6; CYP2A6 higher than CYP2A13): ~ 3 fold
- Formation of flavone and hydroxylated products: 2´-OHFva (CYP1A1): 0.008 ± 0.004 nmol/min/nmol P450
- Formation of flavone and hydroxylated products: 3´-OHFva (CYP1A1): 0.004 ± 0.002 nmol/min/nmol P450
- Formation of flavone and hydroxylated products: 4’´-OHFva (CYP1A1): 0.074 ± 0.002 nmol/min/nmol P450
- Formation of flavone and hydroxylated products: 6OHF (CYP1A1): 0.002 ± 0.001 nmol/min/nmol P450
- Formation of flavone and hydroxylated products: 6OHFva (CYP1A1): 0.058 ± 0.008 nmol/min/nmol P450
- Formation of flavone and hydroxylated products: 7OHF (CYP1A1): <0.001 nmol/min/nmol P450
- Formation of flavone and hydroxylated products: 7OHFva (CYP1A1): 0.007 ± 0.003 nmol/min/nmol P450
- Formation of flavone and hydroxylated products: Flavone (CYP1A1): 0.053 ± 0.003 nmol/min/nmol P450
